From patent US20230124589A1, “Ivacaftor Glycosides, Methods Of Making, And Uses Thereof In Treating Cystic Fibrosis” (DoubleRainbow Biosciences Inc., priority 2020, published 2023)
Values after ≈ are worked out from the molar mass of the structure shown.

What was measured:
[1] = Water solubility (excess compound suspended in distilled water, supernatant measured by HPLC); assay type: physicochemical
Method: The water solubility of ivacaftor and ivacaftor-17-O-D-glucoside was investigated by suspending excess amounts of the two compounds in 200 μl of distilled water in a microcentrifuge tube at 25° C. for 12 h. Afterwards, each sample was centrifuged at 12,000×g for 20 min. The supernatant of each sample was then filtered through a 0.45-μm membrane filter and the concentration of the compound in the supernatant, which is defined as the water-soluble component, was measured by its absorbance at 300 nm using HPLC, and its absolute solubility was calculated in reference to the concentration-absorbance standard curve.

[2] = background statement, no method given; cited from earlier work

solubility at 12 h ([1]; 25 °C, water, thermodynamic from solid) [µg/mL] | water solubility, times higher than ivacaftor ([1]; distilled water, 25° C., 12 h, relative to ivacaftor) | water solubility ([1]; distilled water, 25° C., 12 h, supernatant filtered 0.45-μm, absorbance at 300 nm by HPLC) | SMILES | solubility in water [2] [µg/mL]
0.1 (≈ 0.255 µM) | – | – | CC(C)(C)c1cc(C(C)(C)C)c(NC(=O)c2c[nH]c3ccccc3c2=O)cc1O [ivacaftor, Ivacaftor] | < 1
– | 14,550 times | 1,455 mg/L | CC(C)(C)c1cc(C(C)(C)C)c(OC2O[C@H](CO)[C@@H](O)[C@H](O)[C@H]2O)cc1NC(=O)c1c[nH]c2ccccc2c1=O (stereo partly drawn) [ivacaftor-17-O-D-glucoside] | –
